“And” between values parts separate entries of the source, which are not always exact repeats. Equal values may be shown once.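 48-hour exposure; five concentrations; linearly interpolated endpoints. Definition used: TGI = concentration required for complete inhibition of growth.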
Tests used:
Test in all cases: growth of human tumour cells (NCI), 48 h
[1] = system: CCRF-CEM leukemia
[2] = system: ACHN renal
[3] = system: LOX IMVI melanoma
[4] = system: SK-MEL-5 melanoma
[5] = system: UO-31 renal
[6] = system: SK-MEL-2 melanoma
[7] = system: KM12 colon
[8] = system: MOLT-4 leukemia
[9] = system: M14 melanoma
[10] = system: NCI-H460 lung
[11] = system: OVCAR-5 ovarian
[12] = system: HOP-62 NSCLC
[13] = system: K-562 leukemia
[14] = system: HCT-116 colon
[15] = system: HS 578T breast
[16] = system: SNB-19 CNS
[17] = system: MDA-N
[18] = system: NCI/ADR-RES ovarian

SMILES	TGI [1] [µM]	TGI [2] [µM]	TGI [3] [µM]	TGI [4] [µM]	TGI [5] [µM]	TGI [6] [µM]	TGI [7] [µM]	TGI [8] [µM]	TGI [9] [µM]	TGI [10] [µM]	TGI [11] [µM]	TGI [12] [µM]	TGI [13] [µM]	TGI [14] [µM]	TGI [15] [µM]	TGI [16]	TGI [17] [µM]	TGI [18] [µM]
c1ccc2c(C3NCCc4[nH]cnc43)cccc2c1 (stereo not drawn)	> 100	> 100	> 100	> 100	> 100	> 100	> 100	> 100	> 100	> 100	> 100	> 100	> 100	> 100				
COc1cc2cc(C(=O)N3CC(CCl)c4ccc(O)cc43)[nH]c2c(OC)c1OC (stereo not drawn)	> 100	0.000211	0.136	0.000396	0.0429	0.00468	0.0273		0.12		0.765				0.0588	0.453 µM and 0.21 µM		
CC(=O)C1=CSC2[C@H](NC(=O)Cc3ccccc3)C(=O)N2C1C(=O)OC(c1ccccc1)c1ccccc1 (stereo partly drawn)	68.2			> 100	> 100	> 100	> 100	> 100	> 100			> 100	> 100	> 100		> 100 µM		
CC1(CCC2C=CCC2)CCCNC1=S (stereo not drawn)	> 10	> 10	> 10	> 10	> 10	> 10	> 10	> 10	> 10	> 10	> 10	> 10	> 10	> 10	> 10	> 10 µM	> 10	
COc1ccc2[nH]c3c(c2c1)CCn1c-3nc2ccccc2c1=O	> 25	> 25		> 25	> 25		> 25	> 25	> 25	> 25	> 25	> 25	> 25	> 25	> 25	> 25 µM	> 25	> 25
COc1cccc(/C=C2/Sc3scc(-c4ccccc4)[n+]3C2=O)c1O	30.4	40.9	36.4	31.1	26.9	89.8	40.4	49.5	> 100	37.9	> 100	68.4		29.2	> 100	67 µM		42.3
CCOC(=O)C1=C(O)C(=O)c2ccsc2C1=O	> 100	> 100	> 100	> 100	> 100	> 100	> 100	> 100	> 100	> 100	> 100	> 100	> 100	> 100		> 100 µM		
C=CCc1cc(OC)c2c(c1)C(O)CC(c1ccccc1)O2 (stereo not drawn)	> 100	> 100		> 100	> 100	> 100	> 100	> 100	> 100	> 100	> 100	> 100	> 100	> 100		> 100 µM		
CCCCCC/C=C\CCCCCCCCCc1cccc(O)c1C(=O)O	> 100	> 100		> 100	> 100	95.8	> 100	> 100	> 100	> 100	> 100	> 100	> 100	> 100	> 100	> 100 µM	> 100	> 100
C1=NCCNCCN=Cc2ccc(cc2)OCc2cccc(n2)COc2ccc1cc2	> 100	68.7		> 100	> 100	> 100	> 100	> 100	> 100	> 100	> 100	52.9	> 100	> 100	> 100	> 100 µM	> 100	> 100
CN(C)c1ccc(N=Nc2ccc3nc[nH]c3c2)cc1	> 100	37.6		> 100	65.9	> 100	63.9	> 100	46.8	37.4	70.4		75.2	38.8	74.2	> 100 µM	> 100	> 100
N#Cc1c(N)oc(-c2cccc([N+](=O)[O-])c2)c1C#N	> 100	34.8	85.6	37.7	30.8	> 100			> 100		> 100			> 100	> 100	74.6 µM		> 100
CCOC(=O)CSc1nc(-c2ccccc2)c(C#N)c(=O)[nH]1	> 100	> 100		> 100	> 100	> 100	> 100	> 100	> 100	> 100	> 100	> 100	> 100	> 100	> 100	> 100 µM		> 100
CC(=O)OCC(OC(C)=O)C(OC(C)=O)C(C=NN(C(C)=O)S(=O)(=O)c1ccc(/C=C2\NC(=O)NC2=O)cc1)OC(C)=O (stereo not drawn)	> 100	> 100		> 100	> 100	> 100		> 100	> 100	> 100	> 100	> 100	> 100	> 100	> 100	> 100 µM	> 100	> 100
CCCC(=O)NC1=C(NCC)C(=O)c2ccccc2C1=O	> 100	> 100		> 100			> 100	> 100		> 100	> 100	> 100	> 100	> 100	> 100	> 100 µM	63.2	
Cn1c(/C=C(\O)c2ccc(Cl)cc2)nc2ccccc21	> 100	> 100	> 100	92.4	66.1	> 100	> 100	> 100	> 100	> 100	67.7		> 100	> 100		> 100 µM		

SMILES	TGI [1] [µM]	TGI [2] [µM]	TGI [3] [µM]	TGI [4] [µM]	TGI [5] [µM]	TGI [6] [µM]	TGI [7] [µM]	TGI [8] [µM]	TGI [9] [µM]	TGI [10] [µM]	TGI [11] [µM]	TGI [12] [µM]	TGI [13] [µM]	TGI [14] [µM]	TGI [15] [µM]	TGI [16]	TGI [17] [µM]	TGI [18] [µM]
CC12NN=NC1C(=O)NC2=O (stereo not drawn)	> 100	> 100	> 100	> 100	> 100	> 100	> 100	> 100		> 100		> 100	> 100	> 100		> 100 µM		
CC1CC[C@@H](C(C)C)[C@H](Oc2nnc(C3OC(CO)C(O)C3O)o2)C1 (stereo partly drawn)	> 100	> 100	> 100	> 100	> 100	> 100	> 100	> 100		> 100	> 100	> 100	> 100	> 100		> 100 µM	> 100	> 100
CC(=O)Nc1ccccc1SCCSSCCSc1ccccc1NC(C)=O	70.4	39.1	38.7	> 100	35.8	86.5	> 100	> 100	> 100	68.6	79.2	> 100	> 100	> 100		36.7 µM	68.7	94.8
Cc1cc(N(CCC#N)CCC#N)ccc1/C=C/C(=O)Nc1cccc(Cl)c1	> 100	> 100	> 100	> 100	> 100	> 100	> 100	> 100	> 100	> 100	> 100	> 100	> 100	> 100		> 100 µM		
O=C1OC(CCCl)(c2ccccc2)CC1CN1CCOCC1 (stereo not drawn)	41.6	> 100	83.1	41.7	> 100	57.5	47.7	48	57.1	> 100	> 100	> 100	61.3					
CCOC(=O)c1nc2ccc([N+](=O)[O-])cc2c2c1CCO2	> 100	> 100	> 100	> 100		> 100	> 100	> 100	> 100	> 100	> 100	> 100	> 100	> 100		> 100 µM		
CCOC1(COP(=O)(OCc2ccccc2)OCc2ccccc2)COC(COP(=O)(OCc2ccccc2)OCc2ccccc2)(OCC)CO1 (stereo not drawn)	> 100	> 100	> 100	> 100		> 100	> 100	> 100	> 100	> 100	> 100	> 100	> 100	> 100		> 100 µM		
O=c1oc2ccccc2cc1/C=N/N1C(=S)N(c2ccccc2)C(=Nc2ccccc2)C1=Nc1ccccc1		> 100		> 100	> 100	> 100	> 100	> 100	> 100	> 100	> 100	> 100	> 100	> 100	> 100	> 100 µM	> 100	> 100
NC(N)=N/N=C/c1c(-c2ccccc2)nc2n1ccc1nc(-c3ccccc3)c(/C=N/N=C(N)N)n12	> 100	> 100	> 100	> 100	> 100	> 100	> 100	> 100	> 100	> 100	> 100	> 100	> 100	> 100	> 100	> 100 µM		> 100
CCOc1ccc2nc(NC(=O)c3c/c(=N\NC(=O)C[N+](C)(C)C)c4ccc(O)cc4o3)sc2c1	5.96	13.8	5.73	1.85	24.7	6.22	19.2	5.74	3.1	13.4	7.3		6.08	> 29.8		17.8 µM		
CNC(=O)N1CN(c2ccccc2)C2(CCN(CCCC(=O)c3ccc(F)cc3)CC2)C1=O	70.8	75.5	37.1	26.7	28.1		45.9	33.6	40.8		29	22.8	49	24.6		> 100 µM		36.6
CSCC1CC(c2ccc(Cl)cc2)=NO1 (stereo not drawn)	> 100	> 100		> 100	> 100	> 100	> 100	> 100	> 100	> 100	> 100	> 100	> 100	> 100				
C=CCOC(=O)/C(=C\c1ccc(OC)c(OC)c1)c1ccc(OC)c(OC)c1	> 100	> 100		> 100	80	> 100	> 100	49.5	> 100	> 100	> 100	> 100	> 100	> 100	> 100	> 100 µM	> 100	> 100
COc1ccc(NC(=O)C/C(C)=N\N=C(N)N)c([N+](=O)[O-])c1	> 100	> 100	> 100	> 100	> 100	> 100	> 100	> 100	> 100	> 100	> 100	> 100	> 100	> 100		> 100 µM		
O=c1cc(-c2ccccc2)[nH]c2cc(O)ccc12	42.6	53.7	34.6	83.4	49.3	94.9	50.7	54.7	39	33.3	> 100	70.9	39.2	31.3		> 100 µM		

Source: PubChem BioAssay (NCI)
